≈ marks a conversion by molar mass, not a printed value.
Experiments:
[1] = test system: Macrophomina phaseolina; experiment: In vivo effect on peroxidase activity in Macrophomina phaseoli assessed as RNA content at 0.1 times of IC50 concentration (reference value: 16.1 +/- 0.4 mg/l); format: functional
[2] = test system: Rhizoctonia solani; experiment: In vivo effect on peroxidase activity in Rhizoctonia solani assessed as total soluble sugar content per gram of dry hyphal at 1 times of IC50 concentration (reference value: 20.1 +/- 0.8 mg/g of dry weight); format: functional
[3] = test system: Fusarium culmorum; experiment: In vivo effect on peroxidase activity in Fusarium culmorum assessed as RNA content at 1 times of IC50 concentration (reference value: 51.5 +/- 1.5 mg/l); format: functional
[4] = test system: Globisporangium debaryanum; experiment: In vivo effect on peroxidase activity in Pythium debaryanum assessed as DNA content at 0.1 times of IC50 concentration (reference value: 31 +/- 0.8 mg/l); format: functional
[5] = test system: Rhizoctonia solani; experiment: In vivo effect on peroxidase activity in Rhizoctonia solani assessed as RNA content at 0.5 times of IC50 concentration (reference value: 25 +/- 0.7 mg/l); format: functional
[6] = test system: Rhizoctonia solani; experiment: In vivo effect on peroxidase activity in Rhizoctonia solani assessed as total soluble sugar content per gram of dry hyphal at 0.1 times of IC50 concentration (reference value: 20.1 +/- 0.8 mg/g of dry weight); format: functional
[7] = test system: Macrophomina phaseolina; experiment: In vivo effect on peroxidase activity in Macrophomina phaseoli assessed as non-reducing sugar content per gram of dry hyphal at 1 times of IC50 concentration (reference value: 12 +/- 0.8 mg/g of dry weight); format: functional
[8] = test system: Fusarium culmorum; experiment: Inhibition of peroxidase activity in Fusarium culmorum at 0.5 times of IC50 concentration
[9] = test system: Rhizoctonia solani; experiment: In vivo effect on peroxidase activity in Rhizoctonia solani assessed as reduced sugar content per gram of dry hyphal at 0.5 times of IC50 concentration (reference value: 17.3 +/- 1 mg/g of dry weight); format: functional
[10] = test system: Fusarium culmorum; experiment: In vivo effect on peroxidase activity in Fusarium culmorum assessed as RNA content at 2 times of IC50 concentration (reference value: 51.5 +/- 1.5 mg/l); format: functional
[11] = test system: Rhizoctonia solani; experiment: In vivo effect on peroxidase activity in Rhizoctonia solani assessed as DNA content at 0.5 times of IC50 concentration (reference value: 24 +/- 0.7 mg/l); format: functional
[12] = test system: Macrophomina phaseolina; experiment: In vivo effect on peroxidase activity in Macrophomina phaseoli assessed as total soluble sugar content per gram of dry hyphal at 0.5 times of IC50 concentration (reference value: 19.3 +/- 0.7 mg/g of dry weight); format: functional
[13] = test system: Macrophomina phaseolina; experiment: In vivo effect on peroxidase activity in Macrophomina phaseoli assessed as non-reducing sugar content per gram of dry hyphal at 0.25 times of IC50 concentration (reference value: 12 +/- 0.8 mg/g of dry weight); format: functional
[14] = test system: Rhizoctonia solani; experiment: In vivo effect on peroxidase activity in Rhizoctonia solani assessed as RNA content at 0.1 times of IC50 concentration (reference value: 25 +/- 0.7 mg/l); format: functional
[15] = test system: Rhizoctonia solani; experiment: In vivo effect on peroxidase activity in Rhizoctonia solani assessed as DNA content at 2 times of IC50 concentration (reference value: 24 +/- 0.7 mg/l); format: functional
[16] = test system: Macrophomina phaseolina; experiment: In vivo effect on peroxidase activity in Macrophomina phaseoli assessed as DNA content at 0.1 times of IC50 concentration (reference value: 15.5 +/- 0.5 mg/l); format: functional
[17] = Inhibition of polyphenoloxidase activity in Fusarium culmorum
[18] = test system: Fusarium culmorum; experiment: In vivo effect on peroxidase activity in Fusarium culmorum assessed as DNA content at 0.25 times of IC50 concentration (reference value: 49.5 +/- 1.6 mg/l); format: functional
[19] = test system: Macrophomina phaseolina; experiment: In vivo effect on peroxidase activity in Macrophomina phaseoli assessed as DNA content at 0.5 times of IC50 concentration (reference value: 15.5 +/- 0.5 mg/l); format: functional
[20] = test system: Rhizoctonia solani; experiment: In vivo effect on peroxidase activity in Rhizoctonia solani assessed as total soluble sugar content per gram of dry hyphal at 0.25 times of IC50 concentration (reference value: 20.1 +/- 0.8 mg/g of dry weight); format: functional
[21] = test system: Macrophomina phaseolina; experiment: In vivo effect on peroxidase activity in Macrophomina phaseoli assessed as reduced sugar content per gram of dry hyphal at 0.1 times of IC50 concentration (reference value: 7.3 +/- 0.5 mg/g of dry weight); format: functional
[22] = test system: Globisporangium debaryanum; experiment: Inhibition of peroxidase activity in Pythium debaryanum at 0.5 times of IC50 concentration
[23] = test system: Macrophomina phaseolina; experiment: In vivo effect on peroxidase activity in Macrophomina phaseoli assessed as reduced sugar content per gram of dry hyphal at 0.25 times of IC50 concentration (reference value: 7.3 +/- 0.5 mg/g of dry weight); format: functional
[24] = test system: Rhizoctonia solani; experiment: In vivo effect on peroxidase activity in Rhizoctonia solani assessed as DNA content at 0.25 times of IC50 concentration (reference value: 24 +/- 0.7 mg/l); format: functional
[25] = test system: Globisporangium debaryanum; experiment: In vivo effect on peroxidase activity in Pythium debaryanum assessed as DNA content at 2 times of IC50 concentration (reference value: 31 +/- 0.8 mg/l); format: functional
[26] = test system: Rhizoctonia solani; experiment: In vivo effect on peroxidase activity in Rhizoctonia solani assessed as non-reducing sugar content per gram of dry hyphal at 1 times of IC50 concentration (reference value: 2.8 +/- 0.2 mg/g of dry weight); format: functional
[27] = test system: Macrophomina phaseolina; experiment: In vivo effect on peroxidase activity in Macrophomina phaseoli assessed as total soluble sugar content per gram of dry hyphal at 0.1 times of IC50 concentration (reference value: 19.3 +/- 0.7 mg/g of dry weight); format: functional
[28] = test system: Macrophomina phaseolina; experiment: In vivo effect on peroxidase activity in Macrophomina phaseoli assessed as RNA content at 0.25 times of IC50 concentration (reference value: 16.1 +/- 0.4 mg/l); format: functional
[29] = test system: Macrophomina phaseolina; experiment: In vivo effect on peroxidase activity in Macrophomina phaseoli assessed as DNA content at 1 times of IC50 concentration (reference value: 15.5 +/- 0.5 mg/l); format: functional
[30] = test system: Macrophomina phaseolina; experiment: In vivo effect on peroxidase activity in Macrophomina phaseoli assessed as total soluble sugar content per gram of dry hyphal at 1 times of IC50 concentration (reference value: 19.3 +/- 0.7 mg/g of dry weight); format: functional
[31] = test system: Rhizoctonia solani; experiment: In vivo effect on peroxidase activity in Rhizoctonia solani assessed as non-reducing sugar content per gram of dry hyphal at 0.25 times of IC50 concentration (reference value: 2.8 +/- 0.2 mg/g of dry weight); format: functional
[32] = test system: Macrophomina phaseolina; experiment: In vivo effect on peroxidase activity in Macrophomina phaseoli assessed as reduced sugar content per gram of dry hyphal at 1 times of IC50 concentration (reference value: 7.3 +/- 0.5 mg/g of dry weight); format: functional
[33] = test system: Globisporangium debaryanum; experiment: In vivo effect on peroxidase activity in Pythium debaryanum assessed as DNA content at 0.25 times of IC50 concentration (reference value: 31 +/- 0.8 mg/l); format: functional
[34] = test system: Rhizoctonia solani; experiment: In vivo effect on peroxidase activity in Rhizoctonia solani assessed as reduced sugar content per gram of dry hyphal at 1 times of IC50 concentration (reference value: 17.3 +/- 1 mg/g of dry weight); format: functional

## CC(=O)n1c(-c2ccccc2)cc2ccccc21
[1]
  Activity: 12.9 mg/L
[2]
  Activity: 2.8 mg
[3]
  Activity: 28.3 mg/L
[4]
  Activity: 26 mg/L
[5]
  Activity: 27.9 mg/L
[6]
  Activity: 12.2 mg
[7]
  Activity: 8.9 mg
[8]
  inhibition: -7.9%
[9]
  Activity: 5.6 mg
[10]
  Activity: 20.3 mg/L
[11]
  Activity: 26.6 mg/L
[12]
  Activity: 31 mg
[13]
  Activity: 7.4 mg
[14]
  Activity: 23.6 mg/L
[15]
  Activity: 34.7 mg/L
[16]
  Activity: 11.7 mg/L
[17]
  IC50: 41.5 µg/mL (≈ 176 µM)
[18]
  Activity: 29.9 mg/L
[19]
  Activity: 8.3 mg/L
[20]
  Activity: 10.8 mg
[21]
  Activity: 2.5 mg
[22]
  inhibition: 1.3%
[23]
  Activity: 14.8 mg
[24]
  Activity: 25.2 mg/L
[25]
  Activity: 21.6 mg/L
[26]
  Activity: 0.2 mg
[27]
  Activity: 4.2 mg
[28]
  Activity: 10.6 mg/L
[29]
  Activity: 8.2 mg/L
[30]
  Activity: 34.7 mg
[31]
  Activity: 1.2 mg
[32]
  Activity: 25.8 mg
[33]
  Activity: 25.8 mg/L
[34]
  Activity: 2.6 mg

## c1ccc(-c2cc3ccccc3[nH]2)cc1 [2-PHENYL-1H-INDOLE]
[1]
  Activity: 6.7 mg/L
[2]
  Activity: 9.8 mg
[3]
  Activity: 26.3 mg/L
[4]
  Activity: 30.9 mg/L
[5]
  Activity: 30.8 mg/L
[6]
  Activity: 58.4 mg
[7]
  Activity: 1.3 mg
[8]
  inhibition: 53.8%
[9]
  Activity: 16 mg
[10]
  Activity: 24.7 mg/L
[11]
  Activity: 29.6 mg/L
[12]
  Activity: 4.3 mg
[13]
  Activity: 5.1 mg
[14]
  Activity: 29.4 mg/L
[15]
  Activity: 27 mg/L
[16]
  Activity: 6.4 mg/L
[17]
  IC50: 87.6 µg/mL (≈ 453 µM)
[18]
  Activity: 23.7 mg/L
[19]
  Activity: 8 mg/L
[20]
  Activity: 71.8 mg
[21]
  Activity: 6.3 mg
[22]
  inhibition: 0%
[23]
  Activity: 4.6 mg
[24]
  Activity: 28.9 mg/L
[25]
  Activity: 23.3 mg/L
[26]
  Activity: 2.2 mg
[27]
  Activity: 8.7 mg
[28]
  Activity: 7.2 mg/L
[29]
  Activity: 6.1 mg/L
[30]
  Activity: 7.1 mg
[31]
  Activity: 11.4 mg
[32]
  Activity: 5.8 mg
[33]
  Activity: 19.1 mg/L
[34]
  Activity: 7.7 mg

Source: ChEMBL document CHEMBL3044888, “Fungicidal activity of indole derivatives against some plant pathogenic fungi” (J Pestic Sci, 2010)
